From paper PMC7450057, “Enhancing intracellular accumulation and target engagement of PROTACs with reversible covalent chemistry” (Nature Communications, 2020)
Values joined by “and” are separate entries in the source; they are usually repeats but may differ in a detail not shown here. Identical values can stand only once. Like-named read-outs stand apart in the source and are kept apart here.

Columns and labels:
[1] = tested on: Jeko-1; test: IC50 in MCL cell lines (Supplementary Table 2), Jeko-1; conditions: for Cell Viability (%): Jeko-1 cells, replicate wells
[2] = target: BTK (Homo sapiens, UniProt Q06187); test: In vitro BTK kinase assay (PhosphoSens); format: biochemical; parameters: purchased SignalChem B10-10H-10
BTK, sequence (Q06187 whole entry, the tested form may be a part): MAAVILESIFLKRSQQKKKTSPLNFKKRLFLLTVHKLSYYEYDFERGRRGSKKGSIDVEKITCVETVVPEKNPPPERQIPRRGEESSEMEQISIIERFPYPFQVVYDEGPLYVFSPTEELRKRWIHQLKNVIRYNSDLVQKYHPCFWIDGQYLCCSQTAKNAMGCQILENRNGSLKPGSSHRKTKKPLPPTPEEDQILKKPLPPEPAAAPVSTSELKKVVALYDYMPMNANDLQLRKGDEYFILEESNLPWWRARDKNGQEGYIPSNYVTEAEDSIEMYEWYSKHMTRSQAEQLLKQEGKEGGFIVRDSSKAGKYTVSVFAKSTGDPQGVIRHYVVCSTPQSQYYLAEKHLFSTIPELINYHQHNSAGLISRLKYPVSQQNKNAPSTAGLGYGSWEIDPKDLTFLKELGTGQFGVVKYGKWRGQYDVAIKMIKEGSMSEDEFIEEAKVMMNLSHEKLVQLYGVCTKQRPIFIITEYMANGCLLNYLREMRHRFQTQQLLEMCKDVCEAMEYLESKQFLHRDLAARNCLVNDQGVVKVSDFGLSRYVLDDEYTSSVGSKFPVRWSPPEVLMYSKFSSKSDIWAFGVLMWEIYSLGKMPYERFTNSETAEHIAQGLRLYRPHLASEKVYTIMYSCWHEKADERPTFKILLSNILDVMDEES

[3] = target: T1, NanoLuc-CRBN fusion (Homo sapiens, UniProt Q96SW2); test: NanoBRET CRBN in-cell target engagement assay; format: cell-based; conditions: for NanoBRET(%): Figure 3b
T1 construct: host or cells: HEK 293T/17
T1 sequence (Q96SW2 whole entry, the tested form may be a part): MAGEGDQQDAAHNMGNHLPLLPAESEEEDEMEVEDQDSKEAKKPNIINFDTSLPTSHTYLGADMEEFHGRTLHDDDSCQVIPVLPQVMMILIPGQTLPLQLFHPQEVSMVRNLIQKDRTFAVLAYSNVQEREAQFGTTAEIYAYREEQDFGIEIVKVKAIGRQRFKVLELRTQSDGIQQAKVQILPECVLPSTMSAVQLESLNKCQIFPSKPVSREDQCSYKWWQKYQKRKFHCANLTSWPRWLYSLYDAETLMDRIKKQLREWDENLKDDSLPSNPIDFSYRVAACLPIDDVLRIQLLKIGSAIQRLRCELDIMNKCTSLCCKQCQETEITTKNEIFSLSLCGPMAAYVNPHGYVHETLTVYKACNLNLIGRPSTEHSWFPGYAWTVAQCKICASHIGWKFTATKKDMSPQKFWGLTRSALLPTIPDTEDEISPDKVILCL
T1 sequence (Q16531 whole entry partner, the tested form may be a part): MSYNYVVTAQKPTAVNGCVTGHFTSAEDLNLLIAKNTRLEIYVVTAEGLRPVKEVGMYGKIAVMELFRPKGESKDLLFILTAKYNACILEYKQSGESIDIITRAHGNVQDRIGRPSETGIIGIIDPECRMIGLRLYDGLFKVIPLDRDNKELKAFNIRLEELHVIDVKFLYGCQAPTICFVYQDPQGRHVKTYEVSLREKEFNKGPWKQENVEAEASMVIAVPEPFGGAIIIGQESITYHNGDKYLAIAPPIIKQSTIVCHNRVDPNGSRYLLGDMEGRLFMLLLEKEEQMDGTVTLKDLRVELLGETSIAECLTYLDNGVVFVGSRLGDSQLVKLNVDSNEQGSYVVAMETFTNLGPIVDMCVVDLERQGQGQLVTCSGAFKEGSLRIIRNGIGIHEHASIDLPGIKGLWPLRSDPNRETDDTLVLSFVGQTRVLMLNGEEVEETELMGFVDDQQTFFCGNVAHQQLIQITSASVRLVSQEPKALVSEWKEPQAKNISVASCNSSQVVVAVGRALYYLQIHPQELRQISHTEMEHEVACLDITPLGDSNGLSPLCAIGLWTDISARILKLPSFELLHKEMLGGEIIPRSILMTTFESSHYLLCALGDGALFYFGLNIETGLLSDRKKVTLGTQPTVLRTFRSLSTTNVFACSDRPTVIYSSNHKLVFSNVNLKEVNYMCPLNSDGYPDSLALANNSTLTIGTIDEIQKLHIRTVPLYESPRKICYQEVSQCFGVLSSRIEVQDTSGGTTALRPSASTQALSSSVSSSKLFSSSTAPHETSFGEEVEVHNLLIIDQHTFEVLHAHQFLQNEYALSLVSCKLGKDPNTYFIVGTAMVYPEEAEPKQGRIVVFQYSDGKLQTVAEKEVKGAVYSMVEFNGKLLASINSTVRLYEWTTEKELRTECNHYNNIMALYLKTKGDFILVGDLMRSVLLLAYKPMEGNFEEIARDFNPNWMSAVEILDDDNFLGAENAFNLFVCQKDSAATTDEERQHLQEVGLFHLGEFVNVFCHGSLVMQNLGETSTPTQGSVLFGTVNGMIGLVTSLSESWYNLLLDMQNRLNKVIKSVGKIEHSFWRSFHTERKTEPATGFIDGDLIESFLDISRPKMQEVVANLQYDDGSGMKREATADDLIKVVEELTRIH
How it was run: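 Live cells expressing NanoLuc-CRBN with tracer and compound were incubated 2 h, then given Nano-Glo substrate plus extracellular NanoLuc inhibitor for 3 min at room temperature.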

[4] = tested on: MOLM-14 cells; test: AlamarBlue cell viability assay, MOLM-14; conditions: for MOLM-14 Cell Viability%: Figure 2f, 5 replicates
Experimental: The IC50 was calculated using GraphPad Prism software with a four-parameter dose-response curve fit.

[5] = tested on: MOLM-14 cells; test: Quantification of intracellular drug concentration by LC-MS; format: in vitro ADME; conditions: for Intracellular concentration: Concentration of compound, AVE / intracellular amount, AVE / intracellular amount / Intracellular concentration: Concentration of compound: 200 nM; for Intracellular concentration: Concentration of compound, AVE / intracellular amount, AVE: average of 3 replicates; for intracellular amount: initial amount 0.4000 nmol; for Intracellular concentration: Concentration of compound: sample volume 400 µL
Experimental: MOLM-14 cells were seeded at a density of 0.5 × 10^6 per mL in 2 mL medium. […] The samples were immediately centrifuged at 12,000 × g for 15 min at 4 °C, then removing the supernatant. In all, 400 μL of NP-40 lysis buffer was added to the cell pellet and mixed thoroughly. The mixtures were rocked for 1 h at 4 °C and centrifuged at 12,000 × g for 15 min at 4 °C. Then the supernatant was transferred to new EP tubes. In total, 20 µL supernatant was extracted with 180 µL of acetonitrile (containing internal standard: 250 nM of RNC-Ctrl) and centrifuged at the same conditions described above. Take 75 μL of supernatant for liquid chromatography-mass spectrometry analysis.
The mass spectrometer was operated in positive SIM ion mode (fragmentor 120 V; cycle time 0.6 s/cycle; Agilent Technologies 6130 Quadrupole LC/MS).

In the case of `CN(CCCNC(=O)CNc1cccc2c1C(=O)N(C1CCC(=O)NC1=O)C2=O)C(C)(C)C=C(C#N)C(=O)N1CCC[C@@H](n2nc(-c3ccc(Oc4ccccc4)cc3)c3c(N)ncnc32)C1` (some centres unmarked) [RC-1], the IC50 ([1]; Jeko-1, triplicates) is reported as 200 nM, the “Cell Viability (%)” value ([1]; 1.25E-06 M) is reported as 8.1% and 9.79% and 4.911% and the “Cell Viability (%)” value ([1]; 1.56E-07 M) is reported as 59.0193% and 84.765% and 42.1211%. The “Cell Viability (%)” value ([1]; 2.50E-06 M) was 5.234% and 3.584% and 4.277%, the “Cell Viability (%)” value ([1]; 3.13E-07 M) was 35.9177% and 48.9386% and 32.3116% and the “Cell Viability (%)” value ([1]; 5.00E-06 M) was 6.285% and 4.711% and 5.303%. For the same compound, the “Cell Viability (%)” value ([1]; 6.25E-07 M) was 26.3007% and 22.6601% and 16.326%, the “Cell Viability (%)” value ([1]; 7.81E-08 M) was 58.1018% and 72.8615% and 48.2775% and the IC50 ([2]; AssayQuant BTK assay kit, 2.5 nM BTK, 1 mM ATP, duplicates, read-out: BTK inhibition IC50) was 1.8 nM. The activity at 2.56 pM ([2]; Supplementary Figure 5, drug concentration 2.56 pM, replicates, read-out: Inhibition(%)) was 87.3%, the activity at 12.8 pM ([2]; Supplementary Figure 5, drug concentration 12.8 pM, replicates, read-out: Inhibition(%)) was 93.2% and the activity at 64 pM ([2]; Supplementary Figure 5, drug concentration 64 pM, replicates, read-out: Inhibition(%)) was 89.4%. The activity at 0.00032 µM ([2]; Supplementary Figure 5, drug concentration 320 pM, replicates, read-out: Inhibition(%)) was 87.3%, the activity at 0.0016 µM ([2]; Supplementary Figure 5, drug concentration 1600 pM, replicates, read-out: Inhibition(%)) was 55% and the activity at 0.008 µM ([2]; Supplementary Figure 5, drug concentration 8000 pM, replicates, read-out: Inhibition(%)) was 8.41%. For the same compound, the activity at 0.04 µM ([2]; Supplementary Figure 5, drug concentration 40000 pM, replicates, read-out: Inhibition(%)) was 3.46%, the activity at 0.2 µM ([2]; Supplementary Figure 5, drug concentration 200000 pM, replicates, read-out: Inhibition(%)) was 2.91% and the activity at 1 µM ([2]; Supplementary Figure 5, drug concentration 1000000 pM, replicates, read-out: Inhibition(%)) was 2.99%. For the same compound, the “NanoBRET(%)” value ([3]; 1.00E-05 M, triplicates) was 21.6334% and 26.3618%, the “NanoBRET(%)” value ([3]; 1.60E-08 M, triplicates) was 89.0253% and 93.1823% and 91.5749% and the “NanoBRET(%)” value ([3]; 3.20E-09 M, triplicates) was 81.4353% and 98.6889%. The “NanoBRET(%)” value ([3]; 4.00E-07 M, triplicates) was 23.5104% and 43.7578% and 36.9762%, the “NanoBRET(%)” value ([3]; 8.00E-08 M, triplicates) was 72.3946% and 83.8988% and 65.1002% and the IC50 ([3]; HEK-293 cells, CRBN tracer 0.5 µM, triplicates, read-out: CRBN target engagement IC50,TE) was 250 nM. For the same compound, the “K′P,D (relative intracellular accumulation coefficient)” value ([3]; Kd (CRBN)/IC50,TE (CRBN)) was 16.8, the “MOLM-14 Cell Viability%” value ([4]; 1.00E-05 M) was 9.063% and 7.786% and 9.631% and 4.44% and 5.17% and the “MOLM-14 Cell Viability%” value ([4]; 1.60E-08 M) was 88.4631% and 84.0227% and 77.0073% and 72.5061% and 64.8418%. The “MOLM-14 Cell Viability%” value ([4]; 2.00E-06 M) was 14.0511% and 10.5434% and 12.6318% and 8.942% and 10.7462%, the “MOLM-14 Cell Viability%” value ([4]; 3.20E-09 M) was 89.923% and 89.9432% and 89.2741% and 70.2555% and 64.2336% and the “MOLM-14 Cell Viability%” value ([4]; 4.00E-07 M) was 53.7916% and 40.7948% and 45.6813% and 36.6383% and 39.4972%. For the same compound, the “MOLM-14 Cell Viability%” value ([4]; 6.40E-10 M) was 94.6269% and 96.3301% and 81.3058% and 78.386% and 72.2831%, the “MOLM-14 Cell Viability%” value ([4]; 8.00E-08 M) was 69.5864% and 88.0779% and 68.3495% and 63.8078% and 82.5426% and the IC50 ([4]; Homo sapiens, MOLM-14, 72 h, read-out: Cell viability IC50, MOLM-14 cells, 72 h, Alamar Blue) was 300 nM. The IC50 ([4]; read-out: Cell viability IC50, MOLM-14 cells, 72 h, Alamar Blue) was 310 nM, the “Intracellular concentration: Concentration of compound, AVE” value (from here on “Intracellular concentration … AVE”) ([5]; 5 min) was 0.1304 µM and the “intracellular amount, AVE” value ([5]; 5 min) was 0.0522 nmol. The intracellular amount ([5]; 5 min, single replicates) was 0.0607 nmol and 0.0507 nmol and 0.0451 nmol, the “Intracellular concentration: Concentration of compound” value ([5]; 5 min, single replicates) was 0.1517 µM and 0.1267 µM and 0.1128 µM and the “Intracellular concentration … AVE” value ([5]; 15 min) was 0.1127 µM. For the same compound, the “intracellular amount, AVE” value ([5]; 15 min) was 0.0451 nmol, the intracellular amount ([5]; 15 min, single replicates) was 0.0487 nmol and 0.0414 nmol and 0.0451 nmol and the “Intracellular concentration: Concentration of compound” value ([5]; 15 min, single replicates) was 0.1218 µM and 0.1035 µM and 0.1128 µM. The “Intracellular concentration … AVE” value ([5]; 30 min) was 0.1159 µM, the “intracellular amount, AVE” value ([5]; 30 min) was 0.0464 nmol and the intracellular amount ([5]; 30 min, single replicates) was 0.0474 nmol and 0.0471 nmol and 0.0447 nmol. For the same compound, the “Intracellular concentration: Concentration of compound” value ([5]; 30 min, single replicates) was 0.1184 µM and 0.1177 µM and 0.1117 µM, the “Intracellular concentration … AVE” value ([5]; 60 min) was 0.1117 µM and the “intracellular amount, AVE” value ([5]; 60 min) was 0.0447 nmol. The intracellular amount ([5]; 60 min, single replicates) was 0.0471 nmol and 0.0390 nmol and 0.0480 nmol, the “Intracellular concentration: Concentration of compound” value ([5]; 60 min, single replicates) was 0.1177 µM and 0.0975 µM and 0.1199 µM and the “Intracellular concentration … AVE” value ([5]; 90 min) was 0.1080 µM. The “intracellular amount, AVE” value ([5]; 90 min) was 0.0432 nmol, the intracellular amount ([5]; 90 min, single replicates) was 0.0436 nmol and 0.0454 nmol and 0.0405 nmol and the “Intracellular concentration: Concentration of compound” value ([5]; 90 min, single replicates) was 0.1091 µM and 0.1136 µM and 0.1013 µM. The “Intracellular concentration … AVE” value ([5]; 120 min) was 0.1194 µM, the “intracellular amount, AVE” value ([5]; 120 min) was 0.0478 nmol and the intracellular amount ([5]; 120 min, single replicates) was 0.0460 nmol and 0.0513 nmol. For the same compound, the “Intracellular concentration: Concentration of compound” value ([5]; 120 min, single replicates) was 0.1151 µM and 0.1282 µM, the “Intracellular concentration … AVE” value ([5]; 240 min) was 0.1060 µM and the “intracellular amount, AVE” value ([5]; 240 min) was 0.0424 nmol. For the same compound, the intracellular amount ([5]; 240 min, single replicates) was 0.0426 nmol and 0.0421 nmol and 0.0424 nmol, the “Intracellular concentration: Concentration of compound” value ([5]; 240 min, single replicates) was 0.1065 µM and 0.1054 µM and 0.1061 µM and the Cellular concentration ([5]; 5 min, Mean) was 0.0522 nmol/million cells. For the same compound, the Cellular concentration ([5]; 5 min, single replicates, MOLM-14, 200 nM) was 0.0607 nmol/million cells and 0.0507 nmol/million cells and 0.0451 nmol/million cells, the Cellular concentration ([5]; 15 min, Mean) was 0.0451 nmol/million cells and the Cellular concentration ([5]; 15 min, single replicates, MOLM-14, 200 nM) was 0.0487 nmol/million cells and 0.0414 nmol/million cells and 0.0451 nmol/million cells. The Cellular concentration ([5]; 30 min, Mean) was 0.0464 nmol/million cells, the Cellular concentration ([5]; 30 min, single replicates, MOLM-14, 200 nM) was 0.0474 nmol/million cells and 0.0471 nmol/million cells and 0.0447 nmol/million cells and the Cellular concentration ([5]; 60 min, Mean) was 0.0447 nmol/million cells. For the same compound, the Cellular concentration ([5]; 60 min, single replicates, MOLM-14, 200 nM) was 0.0390 nmol/million cells and 0.0480 nmol/million cells and 0.0471 nmol/million cells and 0.039 nmol/million cells and 0.048 nmol/million cells, the Cellular concentration ([5]; 90 min, Mean) was 0.0432 nmol/million cells and the Cellular concentration ([5]; 90 min, single replicates, MOLM-14, 200 nM) was 0.0436 nmol/million cells and 0.0454 nmol/million cells and 0.0405 nmol/million cells. For the same compound, the Cellular concentration ([5]; 120 min, Mean) was 0.0478 nmol/million cells, the Cellular concentration ([5]; 120 min, single replicates, MOLM-14, 200 nM) was 0.0460 nmol/million cells and 0.046 nmol/million cells and 0.0513 nmol/million cells and the Cellular concentration ([5]; 240 min, Mean) was 0.0424 nmol/million cells. The Cellular concentration ([5]; 240 min, single replicates, MOLM-14, 200 nM) was 0.0426 nmol/million cells and 0.0421 nmol/million cells and 0.0424 nmol/million cells and the “intracellular concentration of RC-1 relative to RNC-1 and IRC-1” value ([5]; LC-MS of cell lysates) was ~ 2 fold.
